What was measured:
Assay type in all cases: functional
Escherichia coli [1] = experiment: Photoinactivation of Escherichia coli EC7 assessed as log reduction of cell survival at 5 uM after 30 mins of irradiation
Escherichia coli [2] = experiment: Photoinactivation of Escherichia coli EC7 at 1 uM after 5 mins of irradiation
Escherichia coli [3] = experiment: Photoinactivation of Escherichia coli EC7 at 1 uM after 20 mins of irradiation

## Cc1ccc(-c2c3nc(c(-c4ccc([N+](C)(C)C)cc4)c4ccc([nH]4)c(-c4ccc([N+](C)(C)C)cc4)c4nc(c(-c5ccc(C)cc5)c5ccc2[nH]5)C=C4)C=C3)cc1.[I-].[I-]
Escherichia coli [1]
  Survival: 3.2
Escherichia coli [2]
  Activity: 70%

## C[N+](C)(C)CCCOc1ccc(-c2c3nc(c(-c4ccc(C(F)(F)F)cc4)c4ccc([nH]4)c(-c4ccc(OCCC[N+](C)(C)C)cc4)c4nc(c(-c5ccc(C(F)(F)F)cc5)c5ccc2[nH]5)C=C4)C=C3)cc1.[I-].[I-]
Escherichia coli [3]
  Activity: 87%

— ChEMBL document CHEMBL1149820, “Synthesis, properties and photodynamic inactivation of Escherichia coli by novel cationic fullerene C60 derivatives” (2008)
